From patent publication US20090264401A1, “SUBSTITUTED PYRIMIDIN-5-CARBOXAMIDES 281” (AstraZeneca AB, priority 2008, published 2009) come the findings set out here.

Structures are written as SMILES.

One may read the inhibition as the relative decrease from the control value, in per cent. As a reminder, the IC50 is the concentration needed to halve the response being measured.

T1 sequence (P28845 whole entry): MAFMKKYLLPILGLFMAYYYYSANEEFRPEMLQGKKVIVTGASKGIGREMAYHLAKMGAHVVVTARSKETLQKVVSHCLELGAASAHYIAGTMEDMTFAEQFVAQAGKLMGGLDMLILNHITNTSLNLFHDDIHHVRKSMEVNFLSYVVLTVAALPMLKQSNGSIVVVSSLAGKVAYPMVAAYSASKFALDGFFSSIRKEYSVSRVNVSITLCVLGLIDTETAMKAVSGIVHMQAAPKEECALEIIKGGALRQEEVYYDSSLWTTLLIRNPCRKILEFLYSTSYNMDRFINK

One test concerns the target T1, human 11βHSD1 enzyme (Homo sapiens, UniProt P28845).
T1 construct: baculovirus expressed N terminal 6-His tagged full length human 11βHSD1 enzyme; 6-His (N); made in house
Briefly: 11βHSD1 cortisone to cortisol conversion, competitive HTRF assay. Format: biochemical. As to conditions: human 11-βHSD; test concentration of 30 μM of compound. Put shortly: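 Enzyme was baculovirus-expressed, N-terminal 6-His-tagged full-length human 11βHSD1, purified on a copper chelate column. Compounds were added in buffer containing 1% DMSO at 10-fold final concentration.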
For the molecule `O=C(N[C@H]1C2CC3CC1C[C@@](O)(C3)C2)c1cnc(N2CCSCC2)nc1C1CCCCC1` [Example 196, 4-Cyclohexyl-N-[(2r,5 s)-5-hydroxyadamantan-2-yl]-2-thiomorpholin-4-ylpyrimidine-5-carboxamide], the inhibition at 30 µM is 99.8%. Still for that read-out and setting: for `O=C(N[C@H]1C2CC3CC1C[C@@](O)(C3)C2)c1cnc(N2CC[S+]([O-])CC2)nc1C1CCCCC1` [Example 197, 4-Cyclohexyl-N-[(2r,5 s)-5-hydroxyadamantan-2-yl]-2-(1-oxidothiomorpholin-4-yl)pyrimidine-5-carboxamide] the value was 97.8%; for `O=C(N[C@H]1C2CC3CC1C[C@@](O)(C3)C2)c1cnc(N2CCS(=O)(=O)CC2)nc1C1CCCCC1` [Example 198, 4-Cyclohexyl-2-(1,1-dioxidothiomorpholin-4-yl)-N-[(2r,5s)-5-hydroxyadamantan-2-yl]pyrimidine-5-carboxamide], 94%.

Take `CN(C)c1ncc(C(=O)N[C@H]2C3CC4CC2C[C@@](O)(C4)C3)c(N(C)C)n1` [Example 199, 2,4-bis(dimethylamino)-N-[(2r,5s)-5-hydroxyadamantan-2-yl]pyrimidine-5-carboxamide]: the inhibition at 30 µM is 96.8%. Take `O=C(N[C@H]1C2CC3CC1C[C@@](O)(C3)C2)c1cnc(N2CC(F)(F)C2)nc1N1CC(F)(F)C1` [Example 200, 2,4-bis(3,3-difluoroazetidin-1-yl)-N-[(2r,5s)-5-hydroxyadamantan-2-yl]pyrimidine-5-carboxamide]: the inhibition at 30 µM came out at 52.8%. Take `O=C(N[C@H]1C2CC3CC1C[C@@](O)(C3)C2)c1cnc(N2CCC2)nc1N1CCC1` [Example 201, 2,4-bis(azetidin-1-yl)-N-[(2r,5s)-5-hydroxyadamantan-2-yl]pyrimidine-5-carboxamide]: the inhibition at 30 µM was 95%.

`Cc1ncc(C(=O)N[C@H]2C3CC4CC2C[C@@](O)(C4)C3)c(OC(C)C)n1` [Example 202, N-[(2r,5s)-5-hydroxyadamantan-2-yl]-2-methyl-4-propan-2-yloxypyrimidine-5-carboxamide]: the inhibition at 30 µM worked out at 102%. The same measure, in the same setting: for `Cc1ncc(C(=O)N[C@H]2C3CC4CC2C[C@@](O)(C4)C3)c(OC2CCC2)n1` [Example 203, 4-Cyclobutyloxy-N-[(2r,5 s)-5-hydroxyadamantan-2-yl]-2-methylpyrimidine-5-carboxamide] the value was 98.6%; for `Cc1ncc(C(=O)N[C@H]2C3CC4CC2C[C@@](O)(C4)C3)c(OC2CCCC2)n1` [Example 204, 4-Cyclopentyloxy-N-[(2r,5s)-5-hydroxyadamantan-2-yl]-2-methylpyrimidine-5-carboxamide], 106%. For `COc1nc(N2C[C@@H](C)O[C@@H](C)C2)ncc1C(=O)N[C@H]1C2CC3CC1C[C@@](O)(C3)C2` [Example 205, 2-[(2R,6S)-2,6-Dimethylmorpholin-4-yl]-N-[(2r,5 s)-5-hydroxytricyclo[3.3.1.13.7]dec-2-yl]-4-methoxypyrimidine-5-carboxamide], the inhibition at 30 µM stood at 102%. Take `COc1nc(NC2CC2)ncc1C(=O)N[C@H]1C2CC3CC1C[C@@](O)(C3)C2` [Example 206, 2-(cyclopropylamino)-N-[(2r,5s)-5-hydroxytricyclo[3.3.1.13,7]dec-2-yl]-4-methoxypyrimidine-5-carboxamide]: the inhibition at 30 µM is 105%.

As to `COc1nc(NC2CCC2)ncc1C(=O)N[C@H]1C2CC3CC1C[C@@](O)(C3)C2` [Example 207, 2-(cyclobutylamino)-N-[(2r,5s)-5-hydroxytricyclo[3.3.1.13,7]dec-2-yl]-4-methoxypyrimidine-5-carboxamide], the inhibition at 30 µM amounted to 93%. For `COc1nc(OC2CCC2)ncc1C(=O)N[C@H]1C2CC3CC1C[C@@](O)(C3)C2` [Example 208, 2-(cyclobutyloxy)-N-[(2r,5s)-5-hydroxytricyclo[3.3.1.13,7]dec-2-yl]-4-methoxypyrimidine-5-carboxamide], the inhibition at 30 µM is 102%. Take `CCOc1nc(N2C[C@@H](C)O[C@@H](C)C2)ncc1C(=O)N[C@H]1C2CC3CC1C[C@@](O)(C3)C2` [Example 209, 2-[(2S,6R)-2,6-dimethylmorpholin-4-yl]-4-ethoxy-N-[(2r,5s)-5-hydroxyadamantan-2-yl]pyrimidine-5-carboxamide]: the inhibition at 30 µM stood at 99.4%.

For the molecule `CCOc1nc(NC2CC2)ncc1C(=O)N[C@H]1C2CC3CC1C[C@@](O)(C3)C2` [Example 210, 2-(cyclopropylamino)-4-ethoxy-N-[(2r,5s)-5-hydroxytricyclo[3.3.1.13,7]dec-2-yl]pyrimidine-5-carboxamide], the inhibition at 30 µM stood at 97.2%. As for `CCOc1nc(NC2COC2)ncc1C(=O)N[C@H]1C2CC3CC1C[C@@](O)(C3)C2` [Example 211, 4-ethoxy-N-[(2r,5s)-5-hydroxytricyclo[3.3.1.13,7]dec-2-yl]-2-(oxetan-3-ylamino)pyrimidine-5-carboxamide], the inhibition at 30 µM is 98.4%. On to `CCOc1nc(NC2CCC2)ncc1C(=O)N[C@H]1C2CC3CC1C[C@@](O)(C3)C2` [Example 212, 2-(cyclobutylamino)-4-ethoxy-N-[(2r,5s)-5-hydroxytricyclo[3.3.1.13,7]dec-2-yl]pyrimidine-5-carboxamide], for which the inhibition at 30 µM worked out at 105%. With `CCOc1nc(OC2CCC2)ncc1C(=O)N[C@H]1C2CC3CC1C[C@@](O)(C3)C2` [Example 213, 2-(cyclobutyloxy)-4-ethoxy-N-[(2r,5s)-5-hydroxytricyclo[3.3.1.13,7]dec-2-yl]pyrimidine-5-carboxamide], the inhibition at 30 µM was 107%. In the case of `CC(C)Oc1nc(N2C[C@@H](C)O[C@@H](C)C2)ncc1C(=O)N[C@H]1C2CC3CC1C[C@@](O)(C3)C2` [Example 214, 2-[(2R,6S)-2,6-dimethylmorpholin-4-yl]-N-[(2r,5s)-5-hydroxytricyclo[3.3.1.13,7]dec-2-yl]-4-(1-methylethoxy)pyrimidine-5-carboxamide], the inhibition at 30 µM amounted to 103%.

With `CC(C)Oc1nc(NC2CC2)ncc1C(=O)N[C@H]1C2CC3CC1C[C@@](O)(C3)C2` [Example 215, 2-(cyclopropylamino)-N-[(2r,5s)-5-hydroxytricyclo[3.3.1.13,7]dec-2-yl]-4-(1-methylethoxy)pyrimidine-5-carboxamide], the inhibition at 30 µM came out at 94.9%. Regarding `CC(C)Oc1nc(NC2CCC2)ncc1C(=O)N[C@H]1C2CC3CC1C[C@@](O)(C3)C2` [Example 217, 2-(cyclobutylamino)-N-[(2r,5s)-5-hydroxytricyclo[3.3.1.13,7]dec-2-yl]-4-(1-methylethoxy)pyrimidine-5-carboxamide], the inhibition at 30 µM stood at 94.2%. On to `CC(C)Oc1nc(OC2CCC2)ncc1C(=O)N[C@H]1C2CC3CC1C[C@@](O)(C3)C2` [Example 218, 2-(cyclobutyloxy)-N-[(2r,5s)-5-hydroxytricyclo[3.3.1.13,7]dec-2-yl]-4-(1-methylethoxy)pyrimidine-5-carboxamide], for which the inhibition at 30 µM is 96%. `COCc1nc(N2C[C@@H](C)O[C@@H](C)C2)ncc1C(=O)N[C@H]1C2CC3CC1C[C@@](O)(C3)C2` [Example 219, 2-[(2S,6R)-2,6-Dimethylmorpholin-4-yl]-N-[(2r,5s)-5-hydroxyadamantan-2-yl]-4-(methoxymethyl)pyrimidine-5-carboxamide]: the inhibition at 30 µM turned out to be 98.6%. Still for that read-out and setting: for `O=C(N[C@H]1C2CC3CC1C[C@@](O)(C3)C2)c1cnc(N2CCOCC2)nc1N1CCOCC1` [compound 32] the value was 97%.

Staying with this test, now noted: recombinant N terminal 6-His tagged full length human 11βHSD1; cortisone 160 nM; 25 minutes at 37° C.
With `O=C(N[C@H]1C2CC3CC1C[C@@](O)(C3)C2)c1cnc(N2CCOCC2)nc1N1CCOCC1` [compound 32], the half-maximal inhibitory concentration (IC50) turned out to be 220 nM.
